Laboratory results from patent US20230416191A1, “Compounds, Compositions and Methods for the Treatment of CREB-dependent Diseases” (Sereno Sciences, Inc., priority 2022, published 2023).
Like-named read-outs stand apart in the source and are kept apart here.

Key:
[1] = tested on: CREB-mediated gene transcription; test: Inhibition of CREB-mediated gene transcription (CRE Renilla luciferase reporter, forskolin stimulated); assay type: cell-based; details: 5 h, HEK293T CRE luciferase reporter cells, forskolin 10 uM
Description: The compounds were tested for their inhibition of CREB-mediated gene transcription according to the method described in Xie et al. J. Med. Chem. 2015, 58, 5075-5087. Generally, HEK293T cell transfected with luciferase reporter cell lines under CRE control were obtained from commercial sources. The cells were plated into 96-well plates (1-[…] cells/well). The cells were allowed to attach to the bottom of the wells overnight, when compounds of different concentrations were added to the cells. Forskolin (10 uM, LC Laboratories, Woburn, Mass.) was added 30 min after the addition of the compounds. The cells were then incubated at 37° C. for 5 h. The media in the wells were removed and the cells were then lysed in 30 µl of 1×Renilla luciferase lysis buffer (Promega, Madison, Wis.). To measure Renilla luciferase activity, five uL of the lysate was combined with 30 uI of benzyl-coelenterazine (Nanolight, Pinetop, Ariz.) solution in PBS (pH 7.4, 10 ug/mL). The sample protein concentration was determined by Dye Reagent Concentrate (Bio-Rad, Hercules, Calif). The Renilla luciferase activity was normalized to protein content in each well and expressed as relative luciferase unit/ug protein (RLU/ug protein). The IC50 was derived from non-linear regression analysis of the RLU/ug protein-concentration curve.

Hep3B = test: Cytotoxicity assay (Cell-titer-Glow, 72 hr); assay type: cell-based; details: Homo sapiens, Hep3B cells, read-out: IC50 for inhibition of Hep3B
Description: (§1) The cells were obtained from ATCC, IMDM was obtained from Lonza, and FBS was obtained from Hyclone. Cell-titer-Glow for cytotoxicity was from Promega. Sterile 96-well tissue culture plates were from Corning. Different concentrations of the test compounds were tested in triplicate wells of either 96-well or 384-well tissue culture plates. The screening was repeated two additional times. The cells from ATCC were thawed, washed once with complete media, and cultured in T75 flask in a 37C CO2 incubator. Cell density was maintained between 5×10 5 to 1×10^6 cells/ml. Compounds were individually weighed and dissolved in DMSO to obtain 10 mM solutions of each and stored at −20° C. until used. To select concentrations of the compounds for cytotoxicity, all the compounds were initially tested at 100 μM and 30 μM in a 48 hr cytotoxicity assay. Two microliter of each concentration of the test compounds were transferred into triplicate wells of a 96-well tissue culture plate. Into each well 100 μof the cell suspension was added, the plate was lidded and incubated at 37° C. in a 5% CO2 incubator maintained at 95% humidity After 72hr of incubation, the plate was removed from the incubator, and the cell viability was determined using Cell-titer-glow reagent as per the protocol described in the kit manual. Signals from the plate was measured using Victor-II plate reader. The raw data from the plate reader were exported to Excel. For each concentration of the drug tested the average signal and SD from the triplicate wells, as well as the percent cytotoxicity were calculated. The resulting data were exported to Prism-graph-pad, the % cytotoxicity was plotted against log concentration and the resulting curves were fitted using non-linear dose response fit and the resulting IC50 values were extracted.

KG-1 = test: Cytotoxicity assay (Cell-titer-Glow, 72 hr); assay type: cell-based; details: Homo sapiens; leukemia cell line KG-1, 72hr; read-out: IC50 for inhibition of KG-1
Description: as §1

HL-60 = test: Cytotoxicity assay (Cell-titer-Glow, 72 hr); assay type: cell-based; details: Homo sapiens; leukemia cell line HL-60, 72hr; read-out: IC50 for inhibition of HL-60
Description: as §1

BT-474 = test: Cytotoxicity assay (Cell-titer-Glow, 72 hr); assay type: cell-based; details: Homo sapiens; breast cancer line BT-474, 72hr; read-out: IC50 for inhibition of BT-474
Description: as §1

NaLM6 = test: Cytotoxicity assay (Cell-titer-Glow, 72 hr); assay type: cell-based; details: Homo sapiens, NALM-6; leukemia cell line NaLM6, 72hr; read-out: IC50 for inhibition of NaLM6
Description: as §1

A549 = test: Cytotoxicity assay (Cell-titer-Glow, 72 hr); assay type: cell-based; details: Homo sapiens, A549 cells, read-out: IC50 for inhibition of A549
Description: as §1

Hs587T = test: Cytotoxicity assay (Cell-titer-Glow, 72 hr); assay type: cell-based; details: breast cancer line Hs587T, read-out: IC50 for inhibition of Hs587T
Description: as §1

MiaPaCa2 = test: Cytotoxicity assay (Cell-titer-Glow, 72 hr); assay type: cell-based; details: Homo sapiens, MIA PaCa-2, MiaPaCa2 cells, read-out: IC50 for inhibition of MiaPaCa2
Description: as §1

MCF-7 = test: Cytotoxicity assay (Cell-titer-Glow, 72 hr); assay type: cell-based; details: Homo sapiens, MCF7; breast cancer line MCF-7, 72hr; read-out: IC50 for inhibition of MCF-7
Description: as §1

MV-411 = test: Cytotoxicity assay (Cell-titer-Glow, 72 hr); assay type: cell-based; details: Homo sapiens, MV4-11; leukemia cell line MV-411, 72hr; read-out: IC50 for inhibition of MV-411
Description: as §1

[2] = Mouse pharmacokinetics, plasma by LC-MS/MS; assay type: in vivo, mice (C57BL/6); details: female C57BL/6 mice
Description: The compound was formulated in an aqueous solution containing 5% Tween-80, 10% DMSO. Female mice (C57BL/6) were given a single dose of the formulation at 5 mg/kg (IV), 10 mg/kg (IP) and 20 mg/kg (orally). At different time points (0.083, 0.25, 0.5, 1, 2, 4, 8, 24 h) post drug administration, blood was collected and the plasma was prepared. The samples were stored at −80° C. until analysis. The drug concentration in the plasma was analyzed by LC-MS/MS.

HL-60 cells = test: AML xenograft model; assay type: in vivo; details: HL-60 xenograft in NSG mice, 2 mg/kg IV daily
Description: For AML xenograft mouse experiments, HL-60 cells (2×10^6) expressing firefly luciferase and GFP are injected through the tail vein into 4-6 week old NOD. Cg-Prkdc^acid Il2rg^tmlWjlSzJ (NSG) mice. Mice are then treated with 2 mg/kg SRS-1006 or 10% DMSO, injected intravenously by tail vein daily seven days after AML cell injection, until death or an endpoint is reached (moribundity) in accordance with the animal care institutional guidelines. Leukemia progression in mice at the indicated time points is monitored using an in vivo IVIS 100 bioluminescenceoptical imaging system (Xenogen Corporation). D-Luciferin (Promega) dissolved in sterile phosphate-buffered saline was injected intraperitoneally at a dose of […], 15 minutes before measuring the luminescent signal. General anesthesia is induced with […] and continued during the procedure using a nose cone. Analysis is performed on Living Image In Vivo imaging software (Perkin-Elmer). Bone marrow is aspirated from bone marrow cavities, and GFP+cells is sorted using the FACSCalibur flow cytometer (BD Biosciences).

[3] = in vivo; cited from earlier work

NCCCOc1cc2ccccc2cc1C(=O)NCCOc1cc2ccccc2cc1C(=O)Nc1ccccc1 [SRS-1001]
IC50 ([1]; Homo sapiens, HEK-293T): 1260 nM

NCCCOc1cc2ccccc2cc1C(=O)NCCOc1cc2ccccc2cc1C(=O)Nc1ccc(Cl)cc1 [SRS-1002]
IC50 ([1]; Homo sapiens, HEK-293T): 1550 nM

NCCCOc1cc2ccccc2cc1C(=O)NCCOc1cc2ccccc2cc1C(=O)Nc1ccc(F)cc1 [SRS-1003]
IC50 ([1]; Homo sapiens, HEK-293T): 410 nM

N#Cc1ccc(NC(=O)c2cc3ccccc3cc2OCCNC(=O)c2cc3ccccc3cc2OCCCN)cc1 [SRS-1004]
IC50 ([1]; Homo sapiens, HEK-293T): 1200 nM

NCCCOc1cc2ccccc2cc1C(=O)NCCOc1cc2ccccc2cc1C(=O)Nc1ccc(Cl)cc1Cl [SRS-1005]
IC50 ([1]; Homo sapiens, HEK-293T): 1550 nM

Cl.NCCCOc1cc2ccccc2cc1C(=O)NCCOc1cc2ccccc2cc1C(=O)Nc1ccccc1F [SRS-1006]
IC50 (Hep3B): 1460 nM
IC50 (KG-1): 3390 nM
IC50 (HL-60): 650 nM
IC50 (BT-474): 5210 nM
IC50 (NaLM6): 970 nM
IC50 (A549): 1490 nM
IC50 (Hs587T): 3690 nM
IC50 (MiaPaCa2): 1700 nM
IC50 (MCF-7): 1470 nM
IC50 (MV-411): 990 nM
IC50 ([1]; Homo sapiens, HEK-293T): 180 nM
bioavailability ([2]; single dose 5 mg/kg IV, read-out: IV bioavailability): 100%
bioavailability ([2]; single dose 10 mg/kg IP, read-out: IP bioavailability): 100%
bioavailability ([2]; po, single dose 20 mg/kg orally, read-out: oral bioavailability): 67%
median survival in Kaplan-Meier analysis (HL-60 cells): significantly prolonged
disease burden by bioluminescence imaging (HL-60 cells; compared to control): less disease burden

NCCCOc1cc2ccccc2cc1C(=O)NCCOc1cc2ccccc2cc1C(=O)Nc1c(F)cccc1F [SRS-1007]
IC50 [1]: 410 nM
IC50 ([1]; Homo sapiens, HEK-293T): 450 nM

O=C(Nc1ccc(Cl)cc1)c1cc2ccccc2cc1O [napththol AS-E, naphthol AS-E]
bioavailability [3]: low
